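96-well plates; 48 h exposure; 5 concentrations. Endpoints by linear interpolation between flanking doses. Not reached: highest tested concentration assigned. GI50 = concentration required for 50% inhibition of growth.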 Activity calls are given as the source filed them. No stated cut-off is given here; in the data, active = GI50 up to about 1.1 µM and inactive = higher.
How the values were obtained:
Test in all cases: NCI anticancer screen, dose series, 48 h
786-0 = test system: 786-0
A498 = test system: A498
A549 = test system: A549
EKVX = test system: EKVX
HOP-62 = test system: HOP-62
HOP-92 = test system: HOP-92
KM12 = test system: KM12
M14 = test system: M14
MDA-MB-435 = test system: MDA-MB-435
OVCAR-4 = test system: OVCAR-4
OVCAR-5 = test system: OVCAR-5
OVCAR-8 = test system: OVCAR-8
SF-268 = test system: SF-268
SF-295 = test system: SF-295
SN12C = test system: SN12C
SNB-19 = test system: SNB-19
SW-620 = test system: SW-620
U-251 = test system: U-251
UACC-257 = test system: UACC-257

Measured: GI50

NC(C(=O)O)C(O)c1c[nH]cn1 (centres undefined)
inactive: 786-0 > 100 µM | A498 > 100 µM | A549 > 100 µM | EKVX > 100 µM | HOP-62 > 100 µM | HOP-92 > 100 µM | KM12 > 100 µM | M14 > 100 µM | MDA-MB-435 > 100 µM | OVCAR-4 > 100 µM | OVCAR-5 > 100 µM | OVCAR-8 > 100 µM | SF-268 > 100 µM | SF-295 > 100 µM | SN12C > 100 µM | SNB-19 > 100 µM | SW-620 > 100 µM | U-251 > 100 µM | UACC-257 > 100 µM

CN(C)C=C1C(=O)c2c(Br)sc(Br)c2C1=O
inactive: 786-0 33.9 µM | A498 21.3 µM | A549 36.4 µM | EKVX 18.9 µM | HOP-62 27.9 µM | HOP-92 16.6 µM | KM12 30.1 µM | M14 18.7 µM | MDA-MB-435 14.1 µM | OVCAR-4 13.8 µM | OVCAR-5 28.1 µM | OVCAR-8 22.9 µM | SF-268 15.7 µM | SF-295 19.7 µM | SN12C 45.6 µM | SNB-19 28.7 µM | SW-620 28.3 µM | U-251 19.1 µM | UACC-257 16.3 µM

COP(=O)(OC)C(Nc1ccc(Cc2ccc(NC(c3ccco3)P(=O)(OC)OC)cc2)cc1)c1ccco1 (centres undefined)
inactive: 786-0 13.8 µM | A498 19 µM | A549 > 100 µM | EKVX 20.9 µM | HOP-62 4.62 µM | HOP-92 6.47 µM | KM12 > 100 µM | M14 38.1 µM | MDA-MB-435 > 100 µM | OVCAR-4 > 100 µM | OVCAR-5 46.8 µM | OVCAR-8 65.5 µM | SF-268 15.4 µM | SF-295 11.5 µM | SN12C 97.1 µM | SNB-19 11.9 µM | SW-620 > 100 µM | U-251 5.33 µM | UACC-257 > 100 µM

COC(=O)C(NC(=O)CNC(=O)CSc1nnc(COc2ccc(Cl)cc2)n1-c1ccccc1)C(C)C (centres undefined)
inactive: 786-0 18.4 µM | A498 21.6 µM | A549 31.3 µM | EKVX 35.9 µM | HOP-62 26.5 µM | HOP-92 20.8 µM | KM12 18.5 µM | M14 18.7 µM | MDA-MB-435 21.2 µM | OVCAR-4 22.1 µM | OVCAR-5 18.2 µM | OVCAR-8 20.1 µM | SF-268 21.3 µM | SF-295 19.5 µM | SN12C 18.4 µM | SNB-19 20.3 µM | SW-620 20.2 µM | U-251 18.3 µM | UACC-257 18 µM

Oc1c(CN2CCOCC2)ccc2cccnc12
inactive: 786-0 > 10 µM | A498 > 10 µM | A549 > 10 µM | EKVX > 10 µM | HOP-62 > 10 µM | HOP-92 > 10 µM | KM12 > 10 µM | M14 > 10 µM | MDA-MB-435 > 10 µM | OVCAR-4 > 10 µM | OVCAR-5 > 10 µM | OVCAR-8 > 10 µM | SF-268 > 10 µM | SF-295 > 10 µM | SN12C > 10 µM | SNB-19 > 10 µM | SW-620 > 10 µM | U-251 > 10 µM | UACC-257 > 10 µM

COc1cccc(C2SCC(=O)N2c2ccc(-n3c(-c4ccccc4)nc4ccccc4c3=O)cc2)c1OC (centres undefined)
inactive: 786-0 > 100 µM | A498 > 100 µM | A549 > 100 µM | EKVX > 100 µM | HOP-62 > 100 µM | HOP-92 > 100 µM | KM12 > 100 µM | M14 > 100 µM | MDA-MB-435 > 100 µM | OVCAR-4 > 100 µM | OVCAR-5 > 100 µM | OVCAR-8 > 100 µM | SF-268 > 100 µM | SF-295 > 100 µM | SN12C > 100 µM | SNB-19 > 100 µM | SW-620 > 100 µM | U-251 > 100 µM | UACC-257 > 100 µM

CCN1C(c2ccccc2)=CC(c2ccccc2)(C(Cl)(Cl)Cl)C=C1c1ccccc1
inactive: 786-0 9.44 µM | A498 17.3 µM | A549 32.4 µM | EKVX 4.22 µM | HOP-62 18.9 µM | HOP-92 3.11 µM | KM12 3.31 µM | M14 4.35 µM | MDA-MB-435 2.74 µM | OVCAR-4 24 µM | OVCAR-5 15.1 µM | OVCAR-8 6.49 µM | SF-268 11.5 µM | SF-295 32.5 µM | SN12C 45.3 µM | SNB-19 4.46 µM | SW-620 7.82 µM | U-251 6.01 µM | UACC-257 4.56 µM

CCC(C)OC(=O)/C(Br)=C1/OC(=O)c2ccccc2-c2ccccc21 (centres undefined)
inactive: 786-0 48.6 µM | A498 40.7 µM | A549 36.6 µM | EKVX > 100 µM | HOP-62 15.9 µM | HOP-92 27.3 µM | KM12 23.8 µM | M14 32.1 µM | MDA-MB-435 26.9 µM | OVCAR-4 62.5 µM | OVCAR-5 80 µM | OVCAR-8 37.6 µM | SF-268 56.4 µM | SF-295 35.6 µM | SN12C 34.2 µM | SNB-19 49.5 µM | SW-620 18.1 µM | U-251 > 10 µM | UACC-257 88.7 µM

O=C1C(Br)=C(Br)C(=O)c2c(O)ccc(O)c21
inactive: 786-0 1.56 µM | A498 21.7 µM | A549 19.3 µM | EKVX 20.7 µM | HOP-62 9.38 µM | HOP-92 2.11 µM | KM12 11.4 µM | M14 1.85 µM | MDA-MB-435 3.07 µM | OVCAR-4 3.6 µM | OVCAR-5 17 µM | OVCAR-8 8.83 µM | SF-268 16.9 µM | SF-295 17.8 µM | SN12C 7.66 µM | SNB-19 18.3 µM | SW-620 1.33 µM | U-251 16.4 µM | UACC-257 5.43 µM

CC1=NN(c2nc(N)nc(CN3CCOCC3)n2)C(C)(C)C1
inactive: 786-0 15.2 µM | A498 > 100 µM | A549 > 100 µM | EKVX 31.8 µM | HOP-62 46.2 µM | HOP-92 33.2 µM | KM12 > 100 µM | M14 > 100 µM | MDA-MB-435 > 100 µM | OVCAR-4 20.5 µM | OVCAR-5 > 100 µM | OVCAR-8 > 100 µM | SF-268 > 100 µM | SF-295 > 100 µM | SN12C > 100 µM | SNB-19 > 100 µM | SW-620 > 100 µM | U-251 > 100 µM | UACC-257 > 100 µM

O=C(O)CSc1nnc(COc2ccc(Cl)cc2)n1-c1ccccc1
inactive: 786-0 > 100 µM | A498 > 100 µM | A549 > 100 µM | EKVX > 100 µM | HOP-62 > 100 µM | HOP-92 > 100 µM | KM12 > 100 µM | M14 > 100 µM | MDA-MB-435 > 100 µM | OVCAR-4 > 100 µM | OVCAR-5 > 100 µM | OVCAR-8 > 100 µM | SF-268 > 100 µM | SF-295 > 100 µM | SN12C > 100 µM | SNB-19 > 100 µM | SW-620 > 100 µM | U-251 > 100 µM | UACC-257 > 100 µM

Source: ChEMBL document CHEMBL1201862, “PubChem BioAssay data set” (2004)
